{"source": "paper PMC12226733", "about": "“Evolution of iGluR ligand specificity, polyamine regulation, and ion selectivity inferred from a placozoan epsilon receptor” (Communications Biology, 2025)", "key": {"[1]": {"target": "T1, GluE1αA wildtype receptor (Trichoplax adhaerens, UniProt B3SAW0)", "T1 sequence (B3SAW0 1-341)": "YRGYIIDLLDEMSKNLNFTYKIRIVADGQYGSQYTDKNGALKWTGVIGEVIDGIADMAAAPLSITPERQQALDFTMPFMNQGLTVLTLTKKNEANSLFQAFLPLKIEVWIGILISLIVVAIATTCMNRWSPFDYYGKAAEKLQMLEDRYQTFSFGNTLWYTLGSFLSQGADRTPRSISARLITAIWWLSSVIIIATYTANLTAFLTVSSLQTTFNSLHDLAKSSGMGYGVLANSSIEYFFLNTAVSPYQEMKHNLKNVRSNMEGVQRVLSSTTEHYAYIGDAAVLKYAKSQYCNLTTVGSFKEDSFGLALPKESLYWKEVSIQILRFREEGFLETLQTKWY", "conditions": "wild type, 10 mM glycine"}, "GluE1αA m3 variant": {"target": "T2, GluE1αA m3 variant (Trichoplax adhaerens, UniProt B3SAW0, F306Y/I236T/S234G)", "T2 sequence (B3SAW0 1-341 S234G/I236T/F306Y)": "T1 sequence (B3SAW0 1-341) with S234G, I236T, F306Y", "conditions": "10 mM glutamate"}, "[2]": {"target": "T3, T. adhaerens GluE1αA receptor (wildtype) (Trichoplax adhaerens, UniProt B3SAW0)", "experiment": "whole-cell patch clamp, agonist-evoked currents in CHO-K1 cells", "type": "cell-based"}, "[3]": {"test_system": "GluE1αA m1 variant (F732Y)", "type": "cell-based, Trichoplax adhaerens", "conditions": "for normalized current (dose response), Avg / normalized current (dose response), single recording / normalized peak inward current, Avg / normalized peak inward current, single recording: m1; for normalized peak inward current, Avg / normalized peak inward current, single recording: ligand 10 mM, normalized to glycine", "source_text": "(§1) As noted, a model has been put forward that defines iGluR ligand specificity based on a set of key amino acids in the LBD of iGluRs[11]. […] To the best of our knowledge, whether these few positions are indeed solely responsible for ligand specificity, and moreover, can be altered to switch specificity for natural ligands, has not been experimentally tested. […] We also created a triple mutant, with an additional phenylalanine to tyrosine mutation at position 732 (F732Y; m3 variant), to make the T. adhaerens epsilon receptor resemble GluN2A and GluA2 receptors from human, reasoning that this mutation might enhance glutamate sensitivity. We also generated a single F732Y mutant (m1 variant), to assess the contribution of this amino acid to ligand specificity in isolation.\n(§2) The cDNA of the T. adhaerens GluE1αA receptor was cloned into the mammalian expression vector pIRES2-EGFP, using a 5’ nested primer that inserted a mammalian consensus Kozak sequence of […] (Supplementary Table 5). Several mutants/variants of this receptor where also prepared via site directed mutagenesis using standard procedures and primers listed in Supplementary Table 5. For electrophysiological comparisons, we commissioned GenScript (USA) to synthesize the cDNA of the human GluA2 […] receptor (NCBI accession number NP_001077088.2), which was cloned into the pIRES2-EGFP vector with a Kozak sequence flanking the start codon and restriction enzymes SalI and BamHI at the 5’ and 3’ ends of the cDNA, respectively. Receptor cDNAs in the various pIRES2 constructs were transfected into Chinese Hamster Ovary-K1 (CHO-K1; Sigma) cells cultured in Dulbecco’s Modified Eagle Medium Nutrient Mixture F-12 (DMEM/F12) supplemented with 10% Fetal Bovine Serum (FBS) and 1% penicillin-streptomycin at 37°C. Transfections were done with 2 μg of plasmid vector using the transfecting reagent PolyJet^TM (SignaGen Laboratories, USA) according to the manufacturer’s instructions and plated onto glass coverslips in 35 mm dishes the next day. Transfected cells were incubated at 28°C for 2 to 4 days, then coverslips were transferred to a new 60 mm dish with 5 mL of external recording solution. […] Agonists and pharmacological compounds used in this study were dissolved in corresponding external solutions. […] Patch pipettes were pulled using a P-1000 micropipette puller (Sutter, USA), from thick-walled borosilicate tubing (1.5 and 0.86 outer and inner diameter, respectively), to a resistance of between 1 and 6 megaohms."}, "[4]": {"test_system": "GluE1αA m2 variant (S653G, I655T)", "type": "cell-based, Trichoplax adhaerens", "source_text": "as §1, §2"}, "[5]": {"test_system": "GluE1αA m3 variant (S653G, I655T, F732Y)", "type": "cell-based, Trichoplax adhaerens", "conditions": "m3", "source_text": "as §1, §2"}, "[6]": {"target": "T3, T. adhaerens GluE1αA receptor (wildtype)", "conditions": "2 s pulse of 3 mM glycine, wash of increasing duration, 2 s test pulse; single exponential; n = 10", "source_text": "as §2"}, "[7]": {"conditions": "ligand 10 mM, normalized to glutamate"}, "[8]": {"conditions": "wild type, ligand 10 mM, normalized to glycine"}, "[9]": {"conditions": "m2, ligand 10 mM, normalized to glutamate"}}, "note": "Substitutions are numbered along the chain they refer to. Values joined by “and” are separate entries in the source; they are usually repeats but may differ in a detail not shown here. Equal values may be shown once. Read-outs that look alike come from different tables or passages of the source.", "data": [{"smiles": "N#Cc1cc2[nH]c(=O)c(=O)[nH]c2cc1[N+](=O)[O-]", "note": "[CNQX, 6-cyano-7-nitroquinoxaline-2,3-dione]", "values": [{"measurement": "current normalized to peak amplitude in the absence of CNQX, Avg", "setting": "[1]; CNQX 1 µM", "result": 0.99}, {"measurement": "current normalized to peak amplitude in the absence of CNQX, single recording", "setting": "[1]; CNQX 1 µM", "result": "1.07 and 0.91 and 0.98 and 1.00 and 1.01 and 0.97 and 0.94"}, {"measurement": "current normalized to peak amplitude in the absence of CNQX, Avg", "setting": "[1]; CNQX 10 µM", "result": 0.86}, {"measurement": "current normalized to peak amplitude in the absence of CNQX, single recording", "setting": "[1]; CNQX 10 µM", "result": "0.80 and 0.79 and 0.93 and 0.89 and 0.85 and 0.87"}, {"measurement": "current normalized to peak amplitude in the absence of CNQX, Avg", "setting": "[1]; CNQX 100 µM", "result": 0.29}, {"measurement": "current normalized to peak amplitude in the absence of CNQX, Avg", "setting": "GluE1αA m3 variant; CNQX 1 µM", "result": 1.22}, {"measurement": "current normalized to peak amplitude in the absence of CNQX, single recording", "setting": "GluE1αA m3 variant; CNQX 1 µM", "result": "1.09 and 1.17 and 1.15 and 0.98 and 1.22 and 1.35 and 1.57"}, {"measurement": "current normalized to peak amplitude in the absence of CNQX, Avg", "setting": "GluE1αA m3 variant; CNQX 10 µM", "result": 0.42}, {"measurement": "current normalized to peak amplitude in the absence of CNQX, single recording", "setting": "GluE1αA m3 variant; CNQX 10 µM", "result": "0.44 and 0.38 and 0.42 and 0.52 and 0.35"}, {"measurement": "current normalized to peak amplitude in the absence of CNQX, Avg", "setting": "GluE1αA m3 variant; CNQX 100 µM", "result": 0.08}]}, {"smiles": "NCC(=O)O", "note": "[glycine]", "values": [{"measurement": "activation of ligand-gated current", "setting": "[2]", "result": "activated"}, {"measurement": "normalized peak inward current, Avg", "setting": "[2]", "result": "1.02 and 1.00"}, {"measurement": "sensitivity to agonist", "setting": "[2]", "result": "robust currents"}, {"measurement": "EC50", "setting": "[3]; m1 (F732Y) variant, dose response of normalized current", "result": "300 ± 40", "unit": "µM"}, {"measurement": "normalized current (dose response), Avg", "setting": "[3]; glycine 0.03 mM", "result": 0.00429}, {"measurement": "normalized current (dose response), single recording", "setting": "[3]; glycine 0.03 mM", "result": "0.00434 and 0.00425"}, {"measurement": "normalized current (dose response), Avg", "setting": "[3]; glycine 0.1 mM", "result": 0.0331}, {"measurement": "normalized current (dose response), Avg", "setting": "[3]; glycine 0.3 mM", "result": 0.50}, {"measurement": "normalized current (dose response), single recording", "setting": "[3]; glycine 0.3 mM", "result": "0.36 and 0.35 and 0.56 and 0.51 and 0.57 and 0.65 and 0.62"}, {"measurement": "normalized current (dose response), Avg", "setting": "[3]; glycine 1 mM", "result": 0.98}, {"measurement": "normalized current (dose response), single recording", "setting": "[3]; glycine 1 mM", "result": "0.97 and 1.00 and 0.96"}, {"measurement": "normalized current (dose response), Avg", "setting": "[3]; glycine 3 mM", "result": 0.99}, {"measurement": "normalized current (dose response), single recording", "setting": "[3]; glycine 3 mM", "result": "1.00 and 0.99 and 0.96"}, {"measurement": "normalized current (dose response), Avg", "setting": "[3]; glycine […]", "result": 0.85}, {"measurement": "normalized peak inward current, Avg", "setting": "[3]", "result": 1.00}, {"measurement": "normalized peak inward current, single recording", "setting": "[3]", "result": "0.93 and 1.04 and 1.03 and 0.96"}, {"measurement": "normalized peak inward current, Avg", "setting": "[4]", "result": "0.37 and 0.38"}, {"measurement": "normalized peak inward current, single recording", "setting": "[4]", "result": "0.36 and 0.37 and 0.44 and 0.40 and 0.28 and 0.49 and 0.42 and 0.34"}, {"measurement": "normalized peak inward current, Avg", "setting": "[5]; agonist 1 mM", "result": 0.0155}, {"measurement": "normalized peak inward current, Avg", "setting": "[5]; [7]", "result": 0.0446}, {"measurement": "time constant of recovery from desensitization (τ)", "setting": "[6]", "result": "184 ± 45", "unit": "ms"}]}, {"smiles": "C[C@H](N)C(=O)O", "note": "[alanine, L-alanine]", "values": [{"measurement": "normalized current (dose response), Avg", "setting": "[2]", "result": 0.80}, {"measurement": "normalized current (dose response), single recording", "setting": "[2]", "result": "0.66 and 0.73 and 0.79 and 0.89 and 0.75 and 0.91 and 0.87 and 0.80"}, {"measurement": "activation of ligand-gated current", "setting": "[2]; ligand tested on its own at 10 mM", "result": "activated"}, {"measurement": "normalized peak inward current, Avg", "setting": "[2]; [8]", "result": 0.89}, {"measurement": "normalized peak inward current, single recording", "setting": "[2]; [8]", "result": "0.85 and 0.96 and 0.83 and 1.00 and 0.82"}, {"measurement": "normalized current (dose response), Avg", "setting": "[2]; wildtype, ligand 0.01 mM", "result": 0.0244}, {"measurement": "normalized current (dose response), Avg", "setting": "[2]; wildtype, ligand 0.03 mM", "result": 0.28}, {"measurement": "normalized current (dose response), Avg", "setting": "[2]; wildtype, ligand 0.30 mM", "result": 1.00}, {"measurement": "normalized current (dose response), single recording", "setting": "[2]; wildtype, ligand 0.30 mM", "result": 1.00}, {"measurement": "normalized current (dose response), Avg", "setting": "[2]; wildtype, ligand […]", "result": 0.60}, {"measurement": "normalized peak inward current, Avg", "setting": "[3]", "result": 1.12}, {"measurement": "normalized peak inward current, single recording", "setting": "[3]", "result": "1.10 and 1.06 and 1.08 and 1.13 and 1.23"}, {"measurement": "normalized peak inward current, Avg", "setting": "[4]; [9]", "result": 0.36}, {"measurement": "normalized peak inward current, single recording", "setting": "[4]; [9]", "result": "0.33 and 0.37 and 0.40 and 0.41 and 0.31"}, {"measurement": "normalized peak inward current, Avg", "setting": "[5]; [7]", "result": 0.0342}]}]}
